Entries after “also recorded” stand apart in the source; their conditions may differ.
What was measured:
[1] = system: release of IL-6 of A549 cell lines; experiment: IL-6 release ELISA, A549; type: cell-based, human; details: 1, 5, 10, 25, 50 μg/mL, overnight, ELISA of supernatant
Description: (§1) Non-treated cells were used as negative controls. […] All incubation steps were performed at room temperature.

[2] = system: release of TNF-α of Caco-2 cell lines; experiment: TNF-α release ELISA, Caco-2; type: cell-based, human; details: 1, 5, 10, 25, 50 μg/mL, overnight, ELISA of supernatant
Description: as §1

[3] = system: human fibroblast cell lines (F2); experiment: MTT cytotoxic / anti-proliferative assay, normal fibroblast; type: cell-based
Description: (§2) The benxoxazepine derivative compound of the present disclosure was dissolved in DMSO to give a […] concentration. The DMSO concentration was less than 1.0% in all experiments and controls.
(§3) The evaluation of anti-proliferative activity was preformed to different cancer cells named human cervical adenocarcinoma (HeLa), adenocarcinoma human alveolar basal epithelial cells (A549), human breast cancer (MCF-7), colon adenocarcinoma Caco-2, compared with human fibroblast cell lines (F2). All cells were grown in Dulbecco's modified Eagle's minimal essential medium (DMEM), supplemented with 25 mM glucose, 10% inactivated fetal bovine serum (Flow, McLean, VA, USA), and 1% penicillin/streptomycin, and maintained at 37° C. in a humidified incubator with 5% CO2. The cells with 30-40 passages were used for further investigations.
(§4) Exponentially growing cells A549, HeLa, Caco-2, MCF-7, and normal fibroblast cell cells have been washed and seeded at 3×10^3 cells/well (100 μL/well) in 96 well microplates (Greiner, Germany). […] In vitro anti-proliferative activity was measured by the cell growth inhibition assay using 3-(4,5-dimethyl-thiazol-2-yl)-2,5-di-phenyltetrazolium bromide (MTT) assay according to the manufacturer's instructions (Promega Corporation, Madison, WI). Briefly, the assay measured the formation of blue formazan product as a result of the reduction of MTT by mitochondrial dehydrogenase, which indicates the normal function of mitochondria and cell viability. The amount of formazan was quantified using a microplate reader (Thermo Fisher Scientific, Waltham, MA, USA) and compared to the optical density obtained for the control (untreated) at 570 nm. The IC50 values were calculated according to the equation for Boltzmann sigmoidal concentration response curve using the nonlinear regression models (GraphPad, Prism Version 7, San Diego, CA, USA). The average of three replicates of IC50 values were calculated and mentioned in the present disclosure Table 1. […]

[4] = system: release of TNF-α of normal fibroblast cell; experiment: TNF-α release ELISA, normal fibroblast; type: cell-based, human; details: 1, 5, 10, 25, 50 μg/mL, overnight, ELISA of supernatant
Description: as §1

[5] = system: release of IL-6 of MCF-7 cell lines; experiment: IL-6 release ELISA, MCF-7; type: cell-based, human; details: 1, 5, 10, 25, 50 μg/mL, overnight, ELISA of supernatant
Description: as §1

[6] = system: release of IL-6 of normal fibroblast cell; experiment: IL-6 release ELISA, normal fibroblast; type: cell-based, human; details: 1, 5, 10, 25, 50 μg/mL, overnight, ELISA of supernatant
Description: as §1

[7] = system: release of IL-6 of HeLa cell lines; experiment: IL-6 release ELISA, HeLa; type: cell-based, human; details: 1, 5, 10, 25, 50 μg/mL, overnight, ELISA of supernatant
Description: as §1

[8] = system: human cervical adenocarcinoma (HeLa); experiment: MTT cytotoxic / anti-proliferative assay, HeLa; type: cell-based
Description: as §2, §3, §4

[9] = system: human breast cancer (MCF-7); experiment: MTT cytotoxic / anti-proliferative assay, MCF-7; type: cell-based
Description: as §2, §3
(§5) Exponentially growing cells A549, HeLa, Caco-2, MCF-7, and normal fibroblast cell cells have been washed and seeded at 3×10^3 cells/well (100 μL/well) in 96 well microplates (Greiner, Germany). After 24 h, cells were confluent, and media was changed, and cells were incubated with the compound of the present disclosure (200-1 μg/mL) for 24 h. In vitro anti-proliferative activity was measured by the cell growth inhibition assay using 3-(4,5-dimethyl-thiazol-2-yl)-2,5-di-phenyltetrazolium bromide (MTT) assay according to the manufacturer's instructions (Promega Corporation, Madison, WI). Briefly, the assay measured the formation of blue formazan product as a result of the reduction of MTT by mitochondrial dehydrogenase, which indicates the normal function of mitochondria and cell viability. The amount of formazan was quantified using a microplate reader (Thermo Fisher Scientific, Waltham, MA, USA) and compared to the optical density obtained for the control (untreated) at 570 nm. The IC50 values were calculated according to the equation for Boltzmann sigmoidal concentration response curve using the nonlinear regression models (GraphPad, Prism Version 7, San Diego, CA, USA). The average of three replicates of IC50 values were calculated and mentioned in the present disclosure Table 1.
(§6) The anti-proliferative activity of the investigated compound of formula 1 of the present disclosure was expressed in IC50 values (the concentration needed to inhibit 50% of cell growth) compared to untreated cells (negative control).

[10] = system: adenocarcinoma human alveolar basal epithelial cells (A549); experiment: MTT cytotoxic / anti-proliferative assay, A549; type: cell-based
Description: as §2, §3, §5, §6

[11] = system: colon adenocarcinoma Caco-2; experiment: MTT cytotoxic / anti-proliferative assay, Caco-2; type: cell-based, human; details: MTT
[12] = MTT cytotoxic / anti-proliferative assay, Caco-2; type: cell-based, human; details: human; calculated SI for cancer cell Caco-2; SI higher than 1.0 considered selective to cancer cell; read-out: Selectivity index (SI) Caco-2
[13] = system: release of TNF-α of A549 cell lines; experiment: TNF-α release ELISA, A549; type: cell-based, human; details: 1, 5, 10, 25, 50 μg/mL, overnight, ELISA of supernatant
Description: as §1

[14] = system: release of TNF-α of HeLa cell lines; experiment: TNF-α release ELISA, HeLa; type: cell-based, human; details: 1, 5, 10, 25, 50 μg/mL, overnight, ELISA of supernatant
Description: as §1

[15] = system: release of TNF-α of MCF-7 cell lines; experiment: TNF-α release ELISA, MCF-7; type: cell-based, human; details: 1, 5, 10, 25, 50 μg/mL, overnight, ELISA of supernatant
Description: as §1

[16] = 24 h incubation, average of three replicates
[17] = MTT, 24 h incubation, average of three replicates

c1ccc2c3c(ccc2c1)OCCn1c-3nc2ccccc21 [compound of the general Formula (I)]
effect on the release of IL-6, A549 [1]: stimulated the release of IL-6
effect on the release of IL-6, A549 ([1]; listed as tested compound): able to stimulate the release of IL-6
effect on the release of TNF-α, Caco-2 [2]: only 50 μg/mL concentration was able to stimulate Caco-2 cell lines to significantly release TNF-α
effect on the release of TNF-α, Caco-2 ([2]; listed as tested compound): able to stimulate Caco-2 cell lines to significantly release TNF-α when treated with 50 μg/mL concentration only
IC50 ([3]; Homo sapiens, Fibroblast, 24 h incubation, average of three replicates): 19.9 ± 1.4 µg/mL
effect on the release of TNF-α, normal fibroblast cells [4]: not able to induce the release
effect on the release of IL-6, MCF-7 [5]: stimulated the release of IL-6
effect on the release of IL-6, MCF-7 ([5]; listed as tested compound): able to stimulate the release of IL-6
effect on the release of IL-6, normal fibroblast cells ([6]; listed as tested compound): no effect; also recorded: not able to induce the release
effect on the release of IL-6, HeLa [7]: stimulated the release of IL-6
effect on the release of IL-6, HeLa ([7]; listed as tested compound): able to stimulate the release of IL-6
IC50 ([8]; Homo sapiens, HeLa, 24 h incubation, average of three replicates): 0.003 µg/mL
IC50 ([9]; Homo sapiens, MCF7, MTT, 24 h incubation, average of three replicates): 17.6 ± 0.72 µg/mL
Selectivity index (SI) MCF-7 ([9]; calculated SI for cancer cell MCF-7, SI higher than 1.0 considered selective to cancer cell): 1.13
IC50 ([10]; Homo sapiens, A549, MTT, 24 h incubation, average of three replicates): 15.7 ± 0.54 µg/mL
Selectivity index (SI) A549 ([10]; calculated SI for cancer cell A549, SI higher than 1.0 considered selective to cancer cell): 1.27
IC50 ([11]; Homo sapiens, Caco-2, 24 h incubation, average of three replicates): 41.3 µg/mL
selectivity ratio at 24 h [12]: 0.48

C[S+](C)[O-] [DMSO %, dimethyl sulfoxide]
IC50 Fibroblast (DMSO %) ([3]; DMSO, value as % DMSO): 0.13 ± 0.02%
IC50 HeLa (DMSO %) ([8]; DMSO, value as % DMSO): 0.15 ± 0.02%
IC50 MCF-7 (DMSO %) ([9]; MTT, DMSO, value as % DMSO): 0.097 ± 0.02%
IC50 A549 (DMSO %) ([10]; MTT, DMSO, value as % DMSO): 0.33 ± 0.05%
IC50 Caco-2 (DMSO %) ([11]; DMSO, value as % DMSO): 23.40 ± 3.20%

N.N.[Cl][Pt][Cl] [Cisplatin, cisplatin, reference compound]
IC50 Fibroblast [3, 16]: 2.83 ± 0.12 µg/mL
effect on the release of TNF-α, normal fibroblast cells [4]: not able to induce the release
effect on the release of IL-6, normal fibroblast cells [6]: not able to induce the release
effect on the release of TNF-α, A549 [13]: release TNF-α
effect on the release of TNF-α, HeLa [14]: release TNF-α
effect on the release of TNF-α, MCF-7 [15]: release TNF-α
IC50 HeLa [8, 16]: 0.13 µg/mL
IC50 MCF-7 [9, 17]: 1.51 ± 0.10 µg/mL
IC50 A549 [10, 17]: 3.13 ± 0.53 µg/mL

Source: US20240358713A1, “PHARMCAEUTICAL COMPOSITION CONTAINING BENZOXAZEPINE DERIVATIVES, AND A METHOD FOR TREATING CANCER” (Yarmouk University, priority 2023, published 2024)
